This is an account of results in US8354438B2, “Neurological functions” (priority 2001, dated 2013).

For data set [1], the system named is children with Autistic Spectrum Disorder. As to the kind of experiment: 8 week double-blind placebo-controlled carnosine study in children with Autistic Spectrum Disorder (Example 4). The data set is classed as in vivo, human. As to conditions: for Fax ratings (week 2 vs. week 6): on carnosine 400 mg twice a day, Mean (SD). From the text:
The following protocol was designed to target the purported brain region of dysfunction in ASD, via supplementation with a naturally-occurring amino acid which is believed to act upon frontal lobe systems or GABA receptors. We sought to eliminate the “expectancy effect” of medication augmentation by enrolling children in a study so that both the clinicians and parents were blinded to group assignment.
Children were included for study if they met the following criteria: ages 3-12, prior diagnoses of Autistic Spectrum Disorder (including either Pervasive Developmental Disorder or Autistic Disorder, by DSMIVR). American Psychiatric Association. Diagnostic and Statistical Manual of Mental Disorders, 4th ed. Washington D.C., 1993. […] Children were enrolled in the study irrespective of cognitive ability level.
All children were tested at baseline in the following domains: expressive language (Expressive One Word Picture Vocabulary test, EOWPVT), receptive language (Receptive One Word Picture Vocabulary test, ROWPVT), autism severity ratings (Childhood Autism Rating Scale; CARS, and Gilliam Autism Rating Scales; GARS), and Clinical Global linpresssions (CGI) completed by parents. At baseline and eight-week testing, all children underwent the CARS, GARS, EOWPVT, ROWPVT, and CGI. Schopler, E., Reichler, R. J., Renner, B. R. The Childhood Autism Rating Scale: CARS. Los Angeles, Calif.: Western Psychological Sciences 1988. Gilliam, J. E. The Gilliam Autism Rating Scale: GARS. Austin, Tex.: Pro-Ed Inc. 1995. Gardner, M. F. Receptive One-Word Picture Vocabulary Test: ROWPVT. Novato, Calif.: Academic Therapy Publications 1985. Gardner, M. F. Expressive One-Word Picture Vocabulary Test (Revised): EOWPVT-R. Novato, Calif.: Academeic Therapy Publication 1990. Children were tested with their parents in the room of a pediatric neurology clinic in a room dedicated to assessment. Parents signed informed written consent (approved by the Lake Forest Hospital Institutional Review Board) before being randomly assigned to either active agent or placebo, and reporting of adverse events was explained per office emergency policy. Because of our prior experience with the substance in an open-label format, we were able to caution regarding the following potential adverse events: hyperactivity, excitability
Both placebo and active substance were identical in powdered appearance, without taste or smell. All pills were contained by a gelatin capsule; parents were instructed to mix the powder with either food or drink. Dosage of carnosine was 400 mg by mouth twice a day.
Every two weeks, parents faxed a CGI regarding their child. The CGI was a 5 point rating scale covering the following domains: (1) Socialization, interaction with others during play, (2) Spontaneous, expressive language or vocalizations, (3) Attention span, “focus”/eye contact, alertness level, (4) Agitation and hyperactivity or lethargy, energy level, Petroff, O. A. C. et al., Neurology 2001; 56:709-715. Coordination, body use, gross motor movements, (6) Anxiety, rigidity, preservation, adaptation to change. A score of “0” indicated “No Change”, a score of “5” indicated a “Great improvement.” Parents were not allowed to refer back to faxes from the prior two week period, so that each rating was essentially “blinded” to the week before. An overall baseline CGI was then compared with an ending CGI.
Thirty-one children (21 M, mean age=7.45; range 3.2-12.5) meeting inclusion criteria were enrolled in an 8 week, double-blind placebo-controlled study. Children were entered randomly into one of two groups: Group I (n=17) received a placebo for the first 8 weeks, while Group II (n=14) received the active substance. Children were assessed at Baseline in the following domains: […]

Data set [2] relates to patients with autism, pervasive developmental disorder, brain injury, cerebral palsy and epilepsy. As to the kind of experiment: Carnosine dietary supplement to improve cognitive functions impaired by neurological disorders (Example 2). The data set is classed as in vivo, human. As to conditions: carnosine 200 mg to 2,000 mg per day, orally. Here is the method: It is hypothesized that carnosine may improve cognitive functions of patients suffering from various disorders. These disorders include autism, pervasive developmental disorder, brain injury, cerebral palsy and epilepsy. There are currently no drugs or treatments available whose primary function is to elevate carnosine levels as a treatment for the previously mentioned disorders. Patients afflicted with the above disorders were treated with a dietary supplement of carnosine in dosages of 200 mg to 2,000 mg per day. The carnosine supplement is available in gel capsule form from Alfa Chem (Kings Point, N.Y.).
The carnosine supplement can be administered orally several times daily. The results indicated an increase in cognitive processing speed, an increase in language skills, and improved motor skills. Patients have increased their amount of speech and language and the level of maturity of speech.

The subject of data set [3] is rat model genetically predisposed to audiogenic epilepsy. As to conditions: carnosine injected prior to acoustic stress; Stvolinsky and Dobrota 2000; cited from earlier work.
The test system of another data set is animals. Conditions: both decreasing mortality and improving recovery; Stvolinsky and Dobrota 2000; cited from earlier work.
The subject of another data set is adult clinical trials. Conditions: among 691 cases of adult clinical trials; Matsukura and Tanaka 2000; cited from earlier work.
In data set [4] the test system is children with intractable seizures. As to the kind of experiment: L-carnosine add-on therapy in children with intractable seizures, EEG and seizure frequency (Example 3). The data set is classed as in vivo, human. Conditions: after 10 weeks at 400 mg p.o. b.i.d. The source says: L-carnosine is an amino acid dipeptide (histidine and alanine), that may indirectly affect spike and wave discharges by altering GABA bioavailability or affecting copper and zinc influx at the cellular level. […] We hypothesized that carnosine ingestion would modulate homocarnosine in the brain, causing spike and wave activity to decrease and seizure control to improve. We gave L-carnosine to four patents as add-on therapy for intractable spike-wave discharge and documented changes in both clinical (overt seizures) and physiological (EEG) status.
Seven children (3 female, 4 male, age range 2-12) met inclusion criteria. All had intractable seizures for at least two years, had failed at least 3 anticonvulsants, had documented, abnormal generalized or secondarily generalized spike-wave, atypical absence, or Lennox-Gastaut Syndrome. All families signed written consent from an IRB approved protocol. All children were evaluated with a Baseline EEG on the same day they were started on 400 mg b.i.d. of L-carnosine. Carnosine from, for example, Alfa Chem in either powder or capsule form. Carnosine may also be obtained from MAYPRO (Purchase, N.Y.), as well as various other suppliers. Post-treatment EEG was undertaken after 10 weeks of L-carnosine therapy. No other concurrent medications were changed. All patients had failed multiple medication treatments prior to the addition of carnosine. These medications included valproic acid, topimirate, benzodiazepines, steroids, carbamazepine, phenytoin, zonisamide, lamotrigine, and phenobarbital.

The subject of data set [5] is animals subject to hyperbaric oxygen. As to conditions: reported by Bondarenko; cited from earlier work.
A further data set concerns carnosinase. Conditions: compared with the parent compound carnosine; Boldyrev 2000; cited from earlier work.
The mark [6] stands for this setting: 8-Week on carnosine 400 mg twice a day, n = 14, Mean (SD), vs baseline .01, vs placebo NS.
Setting [7] is: 8-Week on carnosine 400 mg twice a day, n = 14, Mean (SD), vs baseline NS, vs placebo NS.
The mark [8] stands for this setting: Baseline, active carnosine group n = 14, Mean (SD).

“And” between values parts separate entries of the source, which are not always exact repeats. Equal entries are not always repeated.

As to β-Alanlyl-L-histidine [carnosine], in data set [1] (8-Week on carnosine 400 mg by mouth twice a day, n = 14, Mean (SD), vs baseline .06, vs placebo NS), the CGI is 16.39 (4.36). Moreover, in data set [1] (setting [6]), the GARS is 44.36 (14.94) and 44.35 (14.93); the “GARS Socialization Scale” value was 13.36 (6.58); the “ROWPVT (age-adjusted)” value is 47.85 (28.37) and 47.86 (28.37); the “ROWPVT (raw)” value is given as 44.64 (26.56). The “GARS Communication Scale” value in data set [1] (8-Week on carnosine 400 mg twice a day, n = 14, Mean (SD), vs baseline .03, vs placebo NS) was 18.14 (6.27). Further, the “GARS Behavior Scale” value in data set [1] (8-Week on carnosine 400 mg twice a day, n = 14, Mean (SD), vs baseline .04, vs placebo NS) is 12.85 (5.95). Also, in data set [1] (8-Week on carnosine 400 mg twice a day, n = 14, Mean (SD), vs baseline .07, vs placebo NS), the CARS was 29.75 (7.53). For the same compound, in data set [1] (setting [7]), the “EOWPVT (age-adjusted)” value is recorded as 43.78 (28.22) and the “EOWPVT (raw)” value is reported as 37.28 (25.66). In data set [1] (setting [8]), the CARS is recorded as 31.71 (6.55), the CGI is given as 14.50 (3.65), the “EOWPVT (age-adjusted)” value is on record as 40.71 (23.44) and the “EOWPVT (raw)” value is reported as 35.36 (20.87). In addition, in data set [1] (setting [8]), the GARS is recorded as 55.50 (16.35), the “GARS Behavior Scale” value is 15.71 (6.65), the “GARS Communication Scale” value was 21.64 (7.99) and the “GARS Socialization Scale” value was 18.14 (6.30). In data set [1] (setting [8]), the “ROWPVT (age-adjusted)” value is recorded as 40.57 (24.55) and the “ROWPVT (raw)” value is 38.00 (23.68). For the same compound, the “side effects reported by parents” value in data set [1] (alleviated by decreasing the dose) is given as “only sporadic hyperactivity”. The “discontinuation of the study due to side effects” value in data set [1] (carnosine 400 mg twice a day, 8 weeks) was “Not a single child”. Moreover, in data set [1] (supplementation with carnosine, 8 weeks), the “receptive speech, socialization, and behavior in children with autistic spectrum disorders” value is given as “significantly improve”. For the same compound, in data set [1] (week 2 (column Baseline)), the “Fax ratings (week 2 vs. week 6)” value was 2.03 (2.24). In addition, the “Fax ratings (week 2 vs. week 6)” value in data set [1] (week 6 (column 8-Week), vs week 2 .04) is 4.92 (5.69). In data set [2], the “amount of speech and language and level of maturity of speech” value is reported as “increased”; the cognitive processing speed entry was “increase”; the language skills result is recorded as “increase”; the motor skills entry is “improved”. In addition, the receptive language entry in data set [2] is on record as “improved”. The audiogenic seizures result in data set [3] was “moderation of such seizures”. For the same compound, the “resistance towards ionizing radiation, hypobaric hypoxia, and supercooling” value in the data set with animals is reported as “enhances the resistance”. Further, the symptomatic side effects result in the data set on adult clinical trials is given as “no symptomatic side effects”. Further, in data set [4], the “patients with improved seizure frequency (of 7)” value was 7 patients. Besides, in data set [4] (7 children), the “children with decreased frequency of polyspikes” value was 2 children; the “children with improved background and decreased electrographic slow-spike and wave activity” value is given as 2 children; the “children with improved secondarily generalized spike-wave activity” value worked out at 1 child; the “children with no significant EEG changes” value is given as 2 children. Besides, the “children with documented improved EEG findings (of 7)” value in data set [4] (add-on) is given as 5 children. Moreover, the “patients with reported improvements in global cognition, behavior, and language function (of 7)” value in data set [4] (not evaluated formally) is recorded as 7 patients.
For `NCCCC(=O)N[C@@H](Cc1cnc[nH]1)C(=O)O` [homocarnosine, γ-Aminobutyryl-L-histidine], in data set [5], the “convulsions under hyperbaric oxygen” value is reported as “protects against the convulsions”. For the same compound, the rate of hydrolysis entry in the data set with carnosinase is recorded as “negligible”.
